From patent US11505573B2, “Peptide macrocycles against Acinetobacter baumannii” (Hoffmann-La Roche Inc., priority 2018, dated 2022)

Tested on: A. baumannii ATCC 17978
Test: Antimicrobial susceptibility testing: 50% growth inhibitory concentration (IC50) determination in Iso-Sensitest broth
Assay type: cell-based
Details: Acinetobacter baumannii; A. baumannii strain ATCC17978; Iso-Sensitest medium; OD 600 nm over 16 h; 35±2° C.; read-out: IC50 ATCC17978 (50% growth inhibition concentration)
Experimental: Antimicrobial Susceptibility Testing: 50% Growth Inhibitory Concentration (IC50) Determination The in vitro antimicrobial activity of the compounds was alternatively determined according to the following procedure: The assay used a 10-points Iso-Sensitest broth medium to measure quantitatively the in vitro activity of the compounds against A. baumannii ATCC 17978. Stock compounds in DMSO were serially twofold diluted (e.g. range from 10 to 0.02 μM final concentration) in 384 wells microtiter plates and inoculated with 49 μl the bacterial suspension in Iso-Sensitest medium to have a final cell concentration of ˜5×10^(5) CFU/ml in a final volume/well of […] Microtiter plates were incubated at 35±2° C. Bacterial cell growth was determined by the measurement of optical density at λ=600 nm each 20 minutes over a time course of 16 h. Growth inhibition was calculated during the logarithmic growth of the bacterial cells by determination of the concentration inhibiting 50% (IC50) and 90% (IC90) of the growth. Table 1 provides the 50% growth inhibitory concentrations (IC50) in micromoles per liter of the compounds of present invention obtained against the A. baumannnii strain ATCC17978.

Cc1ccc(-c2ccc(S(=O)(=O)O)cc2)c2c1Sc1ncccc1CN[C@@H](CCCN)C(=O)N[C@@H](CCCCN)C(=O)N(C)[C@@H](Cc1c[nH]c3ccccc13)C(=O)NC2 [Example 11.00, 4-[(11S,14S,17S)-14-(4-Aminobutyl)-11-(3-aminopropyl)-17-(1H-indol-3-ylmethyl)-16,25-dimethyl-12,15,18-trioxo-2-thia-4,10,13,16,19-pentazatricyclo[19.4.0.03,8]pentacosa-1(25), 3(8),4,6,21,23-hexaen-22-yl]benzenesulfonic acid]
IC50: 20 nM

Cc1ccc(-c2ccc(-c3nnn[nH]3)cc2)c2c1Sc1ncccc1CN[C@@H](CCCN)C(=O)N[C@@H](CCCCN)C(=O)N(C)[C@@H](Cc1c[nH]c3ccccc13)C(=O)NC2 [Example 11.01, (11S,14S,17S)-14-(4-Aminobutyl)-11-(3-aminopropyl)-17-(1H-indol-3-ylmethyl)-16,25-dimethyl-22-[4-(1H-tetrazol-5-yl)phenyl]-2-thia-4,10,13,16,19-pentazatricyclo[19.4.0.03,8]pentacosa-1(25), 3(8),4,6,21,23-hexaene-12,15,18-trione]
IC50: 20 nM

CN1C(=O)[C@H](CCCCN)NC(=O)[C@H](CCN)NCc2cccnc2Sc2c(Cl)ccc(-c3ccc(S(=O)(=O)O)cc3)c2CNC(=O)[C@@H]1Cc1c[nH]c2ccccc12 [Example 12.00, 4-[(11S,14S,17S)-14-(4-Aminobutyl)-11-(2-aminoethyl)-25-chloro-17-(1H-indol-3-ylmethyl)-16-methyl-12,15,18-trioxo-2-thia-4,10,13,16,19-pentazatricyclo[19.4.0.03,8]pentacosa-1(25), 3(8),4,6,21,23-hexaen-22-yl]benzenesulfonic acid]
IC50: 20 nM

CN1C(=O)[C@H](CCCN)NC(=O)[C@H](CCN)NCc2cccnc2Sc2c(Cl)ccc(-c3ccc(S(=O)(=O)O)cc3)c2CNC(=O)[C@@H]1Cc1c[nH]c2ccccc12 [Example 13.00, 4-[(11S,14S,17S)-11-(2-Aminoethyl)-14-(3-aminopropyl)-25-chloro-17-(1H-indol-3-ylmethyl)-16-methyl-12,15,18-trioxo-2-thia-4,10,13,16,19-pentazatricyclo[19.4.0.03,8]pentacosa-1(25), 3(8),4,6,21,23-hexaen-22-yl]benzenesulfonic acid]
IC50: 20 nM

C[C@@H]1NCc2cccnc2Sc2c(Cl)ccc(-c3ccc(S(=O)(=O)O)cc3)c2CNC(=O)[C@H](Cc2c[nH]c3ccccc23)N(C)C(=O)[C@H](CCCN)NC1=O [Example 14.00, 4-[(11S,14S,17S)-14-(3-Aminopropyl)-25-chloro-17-(1H-indol-3-ylmethyl)-11,16-dimethyl-12,15,18-trioxo-2-thia-4,10,13,16,19-pentazatricyclo[19.4.0.03,8]pentacosa-1(25), 3(8),4,6,21,23-hexaen-22-yl]benzenesulfonic acid]
IC50: 720 nM

COc1ccc(-c2ccc(S(=O)(=O)O)cc2)c2c1Sc1ncccc1CN[C@@H](CCCN)C(=O)N[C@@H](CCCCN)C(=O)N(C)[C@@H](Cc1c[nH]c3ccccc13)C(=O)NC2 [Example 15.00, 4-[(11S,14S,17S)-14-(4-Aminobutyl)-11-(3-aminopropyl)-17-(1H-indol-3-ylmethyl)-25-methoxy-16-methyl-12,15,18-trioxo-2-thia-4,10,13,16,19-pentazatricyclo[19.4.0.03,8]pentacosa-1(25), 3(8),4,6,21,23-hexaen-22-yl]benzenesulfonic acid]
IC50: 80 nM

COc1ccc(-c2ccc(-c3nnn[nH]3)cc2)c2c1Sc1ncccc1CN[C@@H](CCCN)C(=O)N[C@@H](CCCCN)C(=O)N(C)[C@@H](Cc1c[nH]c3ccccc13)C(=O)NC2 [Example 15.01, (11S,14S,17S)-14-(4-Aminobutyl)-1-(3-aminopropyl)-17-(1H-indol-3-ylmethyl)-25-methoxy-16-methyl-22-[4-(1H-tetrazol-5-yl)phenyl]-2-thia-4,10,13,16,19-pentazatricyclo[19.4.0.03,8]pentacosa-1(25), 3(8),4,6,21,23-hexaene-12,15,18-trione]
IC50: 40 nM

CC(=O)NS(=O)(=O)c1ccc(-c2ccc(Cl)c3c2CNC(=O)[C@H](Cc2c[nH]c4ccccc24)N(C)C(=O)[C@H](CCCCN)NC(=O)[C@H](CCCO)NCc2cccnc2S3)cc1 [Example 16.00, N-[4-[(11S,14S,7S)-14-(4-aminobutyl)-25-chloro-11-(3-hydroxypropyl)-17-(1H-indol-3-ylmethyl)-16-methyl-12,15,18-trioxo-2-thia-4,10,13,16,19-pentazatricyclo[19.4.0.03,8]pentacosa-1(21),3,5,7,22,24-hexaen-22-yl]phenyl]sulfonylacetamide]
IC50: 310 nM

CN1C(=O)[C@H](CCCCN)NC(=O)[C@H](CCCO)NCc2cccnc2Sc2c(Cl)ccc(-c3cnc(O)nc3)c2CNC(=O)[C@@H]1Cc1c[nH]c2ccccc12 [Example 16.01, (11S,14S,17S)-14-(4-Aminobutyl)-25-chloro-11-(3-hydroxypropyl)-22-(2-hydroxypyrimidin-5-yl)-17-(1H-indol-3-ylmethyl)-16-methyl-2-thia-4,10,13,16,19-pentazatricyclo[19.4.0.03,8]pentacosa-1(21),3,5,7,22,24-hexaene-12,15,18-trione]
IC50: 1840 nM

CC(=O)NS(=O)(=O)c1ccc(-c2ccc(Cl)c3c2CNC(=O)[C@H](Cc2c[nH]c4ccccc24)N(C)C(=O)[C@H](CCCCNCC(F)F)NC(=O)[C@H](CCCO)NCc2cccnc2S3)cc1 [Example 17.00, N-[4-[(11S,14S,7S)-25-Chloro-14-[4-(2,2-difluoroethylamino)butyl]-11-(3-hydroxypropyl)-17-(1H-indol-3-ylmethyl)-16-methyl-12,15,18-trioxo-2-thia-4,10,13,16,19-pentazatricyclo[19.4.0.03,8]pentacosa-1(21),3,5,7,22,24-hexaen-22-yl]phenyl]sulfonylacetamide]
IC50: 5220 nM

CNCCCC[C@@H]1NC(=O)[C@H](CCCO)NCc2cccnc2Sc2c(Cl)ccc(-c3ccc(S(=O)(=O)NC(C)=O)cc3)c2CNC(=O)[C@H](Cc2c[nH]c3ccccc23)N(C)C1=O [Example 18.00, N-[4-[(11S,14S,17S)-25-Chloro-11-(3-hydroxypropyl)-17-(1H-indol-3-ylmethyl)-16-methyl-14-[4-(methylamino)butyl]-12,15,18-trioxo-2-thia-4,10,13,16,19-pentazatricyclo[19.4.0.03,8]pentacosa-1(21),3,5,7,22,24-hexaen-22-yl]phenyl]sulfonylacetamide]
IC50: 630 nM

CN1C(=O)[C@H](CCCCNCC(F)F)NC(=O)[C@H](CCCN)NCc2cccnc2Sc2c(Cl)ccc(-c3cnc(O)nc3)c2CNC(=O)[C@@H]1Cc1c[nH]c2ccccc12 [Example 19.00, (11S,14S,17S)-11-(3-Aminopropyl)-25-chloro-14-[4-(2,2-difluoroethylamino)butyl]-22-(2-hydroxypyrimidin-5-yl)-17-(1H-indol-3-ylmethyl)-16-methyl-2-thia-4,10,13,16,19-pentazatricyclo[19.4.0.03,8]pentacosa-1(21),3,5,7,22,24-hexaene-12,15,18-trione]
IC50: 300 nM

CC(=O)NS(=O)(=O)c1ccc(-c2ccc(Cl)c3c2CNC(=O)[C@H](Cc2c[nH]c4ccccc24)N(C)C(=O)[C@H](CCCCN)NC(=O)[C@H](CCCNCCC(=O)O)NCc2cccnc2S3)cc1 [Example 20.00, 3-[3-[(11S,14S,17S)-22-[4-(Acetylsulfamoyl)phenyl]-14-(4-aminobutyl)-25-chloro-17-(H-indol-3-ylmethyl)-16-methyl-12,15,18-trioxo-2-thia-4,10,13,16,19-pentazatricyclo[19.4.0.03,8]pentacosa-1(21),3,5,7,22,24-hexaen-11-yl]propylamino]propanoic acid]
IC50: 520 nM

CN1C(=O)[C@H](CCCCN)NC(=O)[C@H](CCCN)NCc2cccnc2Sc2c(Cl)cc(-c3nnn[nH]3)cc2CNC(=O)[C@@H]1Cc1c[nH]c2ccccc12 [Example 21.00, (11S,14S,17S)-14-(4-Aminobutyl)-11-(3-aminopropyl)-25-chloro-17-(1H-indol-3-ylmethyl)-16-methyl-23-(1H-tetrazol-5-yl)-2-thia-4,10,13,16,19-pentazatricyclo[19.4.0.03,8]pentacosa-1(21),3,5,7,22,24-hexaene-12,15,18-trione]
IC50: 10000 nM

CN1C(=O)[C@H](CCCCN)NC(=O)[C@H](CCCN)NCc2cccnc2Sc2c(Cl)cc(-c3cn[nH]n3)cc2CNC(=O)[C@@H]1Cc1c[nH]c2ccccc12 [Example 22.00, (11S,14S,17S)-14-(4-Aminobutyl)-1-(3-aminopropyl)-25-chloro-17-(1H-indol-3-ylmethyl)-16-methyl-23-(1H-triazol-5-yl)-2-thia-4,10,13,16,19-pentazatricyclo[19.4.0.03,8]pentacosa-1(21),3,5,7,22,24-hexaene-12,15,18-trione]
IC50: 180 nM
